From paper PMC7210949, “Flexibility of intrinsically disordered degrons in AUX/IAA proteins reinforces auxin co-receptor assemblies” (Nature Communications, 2020)

Tests used:
Assay in all cases: [3H]IAA saturation radioligand binding
TIR1·IAA (7-7-7-12-7) = biological target: T1, TIR1·IAA (7-7-7-12-7); set-up: species or system Arabidopsis thaliana; settings: labelled compound; 0.01 µM ASK1·TIR1, 0.3 µM GST-AUX/IAA chimera, on ice 1 h; one-site fit; n = 2
T1 construct: IAA7 with its degron tail replaced by that of IAA12 (one seamless polypeptide: DI, linker, core degron, PB1 from IAA7); GST fusion from E. coli; with SKP1-like protein 1A

ASK1·TIR1·IAA12 = biological target: T2, ASK1·TIR1·IAA12 (Arabidopsis thaliana, UniProt Q38830+Q570C0)
T2 construct: full-length IAA12 as GST fusion from E. coli, GST kept; with SKP1-like protein 1A
T2 sequence (Q570C0 1-594): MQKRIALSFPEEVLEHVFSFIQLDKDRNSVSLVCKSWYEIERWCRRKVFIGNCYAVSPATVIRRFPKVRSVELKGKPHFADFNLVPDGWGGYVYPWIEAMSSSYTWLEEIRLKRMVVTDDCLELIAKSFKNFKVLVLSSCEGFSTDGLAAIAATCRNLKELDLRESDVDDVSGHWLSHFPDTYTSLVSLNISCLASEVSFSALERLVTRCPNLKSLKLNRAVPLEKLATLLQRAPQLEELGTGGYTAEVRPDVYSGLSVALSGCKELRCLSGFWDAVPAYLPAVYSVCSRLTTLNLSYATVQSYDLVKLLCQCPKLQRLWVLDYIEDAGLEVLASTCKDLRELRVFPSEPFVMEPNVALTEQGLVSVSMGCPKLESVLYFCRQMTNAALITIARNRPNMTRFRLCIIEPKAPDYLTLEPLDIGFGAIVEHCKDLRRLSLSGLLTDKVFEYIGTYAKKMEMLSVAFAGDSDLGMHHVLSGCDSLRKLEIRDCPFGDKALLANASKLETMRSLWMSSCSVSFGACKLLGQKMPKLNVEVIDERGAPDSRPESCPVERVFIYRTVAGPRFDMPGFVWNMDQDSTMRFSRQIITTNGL
T2 sequence (Q38830 1-239): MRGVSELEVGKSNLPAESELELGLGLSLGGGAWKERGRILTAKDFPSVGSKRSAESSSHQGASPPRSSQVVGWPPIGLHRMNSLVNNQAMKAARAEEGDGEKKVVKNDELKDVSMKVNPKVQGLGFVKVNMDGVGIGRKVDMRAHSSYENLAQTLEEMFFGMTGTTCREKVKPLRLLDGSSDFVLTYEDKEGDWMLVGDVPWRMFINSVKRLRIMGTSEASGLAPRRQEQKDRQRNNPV
T2 sequence (Q39255 1-160 partner): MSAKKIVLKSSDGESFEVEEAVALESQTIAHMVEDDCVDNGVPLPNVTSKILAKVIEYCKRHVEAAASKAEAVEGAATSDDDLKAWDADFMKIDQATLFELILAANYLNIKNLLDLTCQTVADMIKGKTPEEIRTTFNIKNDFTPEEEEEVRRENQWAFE

TIR1·IAA (12-12-12-7-12) = biological target: T3, TIR1·IAA (12-12-12-7-12); set-up: species or system Arabidopsis thaliana; settings: labelled compound; 0.01 µM ASK1·TIR1, 0.3 µM GST-AUX/IAA chimera, on ice 1 h; one-site fit; n = 3
T3 construct: IAA12 with its degron tail replaced by that of IAA7 (one seamless polypeptide: DI, linker, core degron, PB1 from IAA12); GST fusion from E. coli; with SKP1-like protein 1A

TIR1·IAA (7-7-7-7-12) = biological target: T4, TIR1·IAA (7-7-7-7-12); set-up: species or system Arabidopsis thaliana; settings: labelled compound; 0.01 µM ASK1·TIR1, 0.3 µM GST-AUX/IAA chimera, on ice 1 h; one-site fit; n = 2
T4 construct: IAA7 with its PB1 domain replaced by that of IAA12 (one seamless polypeptide: DI, linker, core degron, degron tail from IAA7); GST fusion from E. coli; with SKP1-like protein 1A

TIR1·IAA (12-12-12-12-7) = biological target: T5, TIR1·IAA (12-12-12-12-7); set-up: species or system Arabidopsis thaliana; settings: labelled compound; 0.01 µM ASK1·TIR1, 0.3 µM GST-AUX/IAA chimera, on ice 1 h; one-site fit; n = 3
T5 construct: IAA12 with its PB1 domain replaced by that of IAA7 (one seamless polypeptide: DI, linker, core degron, degron tail from IAA12); GST fusion from E. coli; with SKP1-like protein 1A

ASK1·TIR1·IAA7 = biological target: T6, ASK1·TIR1·IAA7 (Arabidopsis thaliana, UniProt Q38825+Q570C0)
T6 construct: full-length IAA7 as GST fusion from E. coli, GST kept; with SKP1-like protein 1A
T6 sequence (Q570C0 1-594): T2 sequence (Q570C0 1-594)
T6 sequence (Q38825 1-243): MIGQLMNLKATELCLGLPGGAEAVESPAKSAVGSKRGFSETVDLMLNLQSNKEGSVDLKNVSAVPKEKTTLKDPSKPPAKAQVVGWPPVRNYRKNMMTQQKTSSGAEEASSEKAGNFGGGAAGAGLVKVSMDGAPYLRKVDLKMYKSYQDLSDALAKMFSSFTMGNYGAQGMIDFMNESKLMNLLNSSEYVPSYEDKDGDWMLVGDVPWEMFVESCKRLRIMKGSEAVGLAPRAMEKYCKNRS
T6 sequence (Q39255 1-160 partner): T2 sequence (Q39255 1-160 partner)

O=C(O)Cc1c[nH]c2ccccc12 [[3H]IAA]
Kd (TIR1·IAA (7-7-7-12-7)): ~0.057 µM | Kd (ASK1·TIR1·IAA12): ~0.226 µM | Kd (TIR1·IAA (12-12-12-7-12)): ~0.079 µM | Kd (TIR1·IAA (7-7-7-7-12)): ~0.043 µM | Kd (TIR1·IAA (12-12-12-12-7)): ~0.133 µM | Kd (ASK1·TIR1·IAA7): ~0.02 µM
